Here are results for 12 molecules from ChEMBL document CHEMBL1144331, “Uric acid may inhibit glucose-induced insulin secretion via binding to an essential arginine residue in rat pancreatic beta-cells” (2005).

Experiment [1] concerns Rattus norvegicus. Description: Insulin release in rat pancreatic beta-cells after 15 minutes of administration at 1 mM was measured. The format is functional.
In experiment [2] the test system is Rattus norvegicus. Description: Insulin release in rat pancreatic beta-cells after 15 minutes of administration of the NH4-salt of compound at 1 mM was measured. Format: functional.
Experiment [3] is filed under the species Rattus norvegicus. Description: Acid dissociation constant was determined.
Experiment [4] relates to Rattus norvegicus. The experiment is described as follows: Insulin release in rat pancreatic beta-cells after 15 minutes of administration of the Na-salt of compound at 1 mM was measured. Format: functional.
The subject of experiment [5] is Rattus norvegicus. The experiment is described as follows: Insulin release in rat pancreatic beta-cells after 15 minutes of administration of the K-salt of compound at 1 mM was measured. The format is functional.
For experiment [6], the system named is Rattus norvegicus. The experiment is described as follows: Insulin release in rat pancreatic beta-cells (PBS-rinsing of the islets) after 15 minutes of administration at 1 mM was measured. Format: functional.

Take `O=C1NC(=O)C(O)(O)C(=O)N1`: the Insulin release in the experiment with Rattus norvegicus [1] is 0.39 ng/islet/h. As to `O=c1[nH]c(=O)c2nn[nH]c2[nH]1`, in the experiment on Rattus norvegicus [1], the Insulin release turned out to be 7.92 ng/islet/h. For the molecule `NC(N)N.O=C1NC(O)Nc2[nH]c(O)nc21` (stereo not drawn), the Insulin release in the experiment on Rattus norvegicus [1] turned out to be 8.39 ng/islet/h. Molecule `CN1C(=O)c2nc(O)[nH]c2NC1O.NC(N)N` (stereo not drawn) yielded an Insulin release with Rattus norvegicus [1] of 8.75 ng/islet/h. `Cn1c(O)nc2c1C(=O)NC(O)N2.NC(N)N` (stereo not drawn): in the experiment on Rattus norvegicus [1], the Insulin release is 8.55 ng/islet/h.

In turn, `Cn1c(O)nc2[nH]c(=O)[nH]c(=O)c21` yielded an Insulin release with Rattus norvegicus [1] of 8.04 ng/islet/h. In the experiment with Rattus norvegicus [1], `Cn1c(=O)[nH]c2[nH]c(=O)[nH]c2c1=O` came in with an Insulin release of 7.92 ng/islet/h. `Cn1c(=O)c2[nH]c(=O)[nH]c2n(C)c1=O` came in with an Insulin release in the experiment on Rattus norvegicus [1] of 8.48 ng/islet/h.

Take `O=c1[nH]cnc2nc[nH]c12` [HYPOXANTHINE]: the Insulin release with Rattus norvegicus [1] came out at 8.44 ng/islet/h.

`O=C(O)c1nc(=O)[nH]c(=O)[nH]1` [OTERACIL]: the Insulin release in the experiment on Rattus norvegicus [1] is recorded as 8.26 ng/islet/h. For `Oc1nc(O)c2nc(O)[nH]c2n1` [URIC ACID], the Insulin release in the experiment with Rattus norvegicus [2] is reported as 1.66 ng/islet/h; in the experiment with Rattus norvegicus [1] it was 1.65 ng/islet/h; in the experiment on Rattus norvegicus [4] it was 1.7 ng/islet/h; in the experiment with Rattus norvegicus [5], 1.68 ng/islet/h. The molecule also showed a pKa in the experiment listed under Rattus norvegicus [3] of 5.4.

With `O=c1[nH]c(=O)c2nc[nH]c2[nH]1` [XANTHINE], the Insulin release is on record as 3.5 ng/islet/h in the experiment on Rattus norvegicus [1] and 7.72 ng/islet/h with Rattus norvegicus [6]. The molecule also showed a pKa in the experiment filed under Rattus norvegicus [3] of 7.7.
